Literature values in US11173121B2, “Pellets having a multi-layer structure for delayed release of the active substance in the distal colon” (Dr. Falk Pharma GmbH, priority 2018, dated 2021).

- pKa value: 12.85±0.10
Compound: CCCC1O[C@@H]2C[C@H]3[C@@H]4CCC5=CC(=O)C=C[C@]5(C)[C@H]4[C@@H](O)C[C@]3(C)[C@]2(C(=O)CO)O1 (stereo partly shown) [budesonide]
